These results are taken from US20160159861A1, “APJ Receptor Compounds” (priority 2013, published 2016).

Peptide text beside a SMILES is read from it. Where only a bound is given, the exact number is not on record here.

In this assay the target is T1, human APJ receptor (hAPJ) (Homo sapiens, UniProt P35414).
T1 construct: expressed in transfected cells
T1 sequence (P35414 1-380): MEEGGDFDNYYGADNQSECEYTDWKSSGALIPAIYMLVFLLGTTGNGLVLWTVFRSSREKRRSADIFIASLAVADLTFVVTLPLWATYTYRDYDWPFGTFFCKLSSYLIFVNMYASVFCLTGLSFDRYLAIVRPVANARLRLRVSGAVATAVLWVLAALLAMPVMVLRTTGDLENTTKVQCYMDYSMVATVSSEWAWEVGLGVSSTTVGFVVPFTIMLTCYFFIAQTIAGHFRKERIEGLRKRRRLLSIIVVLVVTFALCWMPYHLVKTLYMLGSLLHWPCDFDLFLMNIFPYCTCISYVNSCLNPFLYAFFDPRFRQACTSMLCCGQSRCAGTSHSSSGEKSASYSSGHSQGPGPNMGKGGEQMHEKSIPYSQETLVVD
Briefly: HTRF cAMP assay: inhibition of NKH477-stimulated cAMP in HEK cells stably expressing hAPJ. The class given is cell-based. To be noted: for Emax: HEK293, read-out: % IA, bound stated; for % IA (cAMP inhibition, hAPJ HEK): intrinsic activity; for Ranking: composite class of EC50 (hAPJ), % IA and % histamine or formal (+) charge; for inhibition of NKH477-stimulated increase in cAMP, dose dependent: concentration response curves, FIGS. 1 and 2, HEK cells stably expressing APJ. An excerpt: HTRF cAMP Assay and IP-One Assay (Cisbio)
HTRF (homogeneous time resolved fluorescence) is a technology developed by Cisbio Bioassays based on TR-FRET (time-resolved fluorescence resonance energy transfer). Cisbio Bioassays has developed a wide selection of HTRF-based assays compatible with whole cells, thereby enabling functional assays to run under more physiological conditions. The IP-One assays are competitive immunoassays using cryptate-labeled anti-IP1 monoclonal antibody and d2-labeled IP1. IP1 is a relatively stable downstream metabolite of IP3, and accumulates in cells following Gq receptor activation.
cAMP kits based on a competitive immunoassay using cryptate-labeled anti-cAMP antibody and d2-labeled cAMP were used to assay the effects of APJ compounds of the present invention. […] Cells are treated with 1 nG/mL doxycycline and seeded in all white 96 well plates @40 k/well overnight.
For orientation: In TR-FRET formats the signal depends on donor and acceptor labels being close together.

The mark [1] stands for this setting: EC50 (cAMP inhibition, hAPJ HEK), Table 6, hAPJ HEK cells, NKH477-stimulated cAMP.
Where [2] appears, read: EC50 (hAPJ), inhibition of cAMP production, bound stated, HTRF cAMP Assay, per data of Table 6.
Where [3] appears, read: HTRF cAMP Assay, per data of Table 6.

In general, EC50 refers to the concentration at which the effect is half-maximal. High values mean a need for much substance, low ones an effect from little substance. As for `CCCCCCCCCCCCCCCC(=O)N[C@H](C(=O)N[C@H](C(=O)N[C@@H](CC(=O)O)C(=O)N(C)[C@@H](CCCNC(=N)N)C(=O)N[C@@H](CO)C(=O)N[C@@H](CO)C(=O)N[C@@H](CCC(=O)O)C(=O)N[C@H](CCCCN)C(=O)N[C@@H](CCCNC(=N)N)C(=O)N[C@@H](CCCNC(=N)N)C(=O)N[C@@H](CO)C(=O)N[C@@H](C)C(=O)N[C@@H](CC(=O)O)C(=O)N[C@H](C(=O)N[C@@H](Cc1ccccc1)C(=O)N[C@H](C(N)=O)[C@@H](C)CC)[C@@H](C)CC)C(C)C)[C@@H](C)O` [Compound 32] (HELM PEPTIDE1{[CCCCCCCCCCCCCCCC(=O)[*:2]].T.V.D.[meR].S.S.E.[dK].R.R.S.A.D.I.F.I.[am]}$$$$V2.0), the Ranking entry is “**** (EC50≦25 nM (hAPJ), % IA≧80% and either % histamine>35% or formal (+) charge>1)”; the “inhibition of NKH477-stimulated increase in cAMP, dose dependent” value is “inhibited”. Moreover, the concentration giving a half-maximal response (EC50) under setting [1] amounted to 24 nM. The EC50 under setting [2] is not above 25 nM. Besides, the Emax under setting [3] was not below 80%. For the same compound, the “% IA (cAMP inhibition, hAPJ HEK)” value (Table 6, hAPJ HEK cells) is 97%.
Turning to `CCCCCCCCCCCCCCCC(=O)N[C@@H](CC(=O)O)C(=O)N[C@H](C(=O)N[C@@H](Cc1c[nH]cn1)C(=O)N[C@@H](CCCNC(=N)N)C(=O)N[C@@H](CO)C(=O)N[C@@H](CO)C(=O)N[C@@H](CCC(=O)O)C(=O)N[C@H](CCCCN)C(=O)N[C@@H](CCCNC(=N)N)C(=O)N[C@@H](CCCNC(=N)N)C(=O)N[C@@H](CO)C(=O)N[C@@H](C)C(=O)N[C@@H](CC(=O)O)C(=O)N[C@H](C(=O)N[C@@H](Cc1ccccc1)C(=O)N[C@H](C(N)=O)[C@@H](C)CC)[C@@H](C)CC)C(C)C` [Compound 35] (HELM PEPTIDE1{[CCCCCCCCCCCCCCCC(=O)[*:2]].D.V.H.R.S.S.E.[dK].R.R.S.A.D.I.F.I.[am]}$$$$V2.0), the Ranking entry was “*** (EC50 25-50 nM (hAPJ), % IA 50-79% and either % histamine≦35% or formal (+) charge≦1)”. Under setting [1], this compound had an EC50 of 32 nM. Besides, the EC50 under setting [2] was 25 to 50 nM. Besides, the Emax under setting [3] fell in the range of 50 to 79%. For the same compound, for the setting “Table 6, hAPJ HEK cells”, the “% IA (cAMP inhibition, hAPJ HEK)” value came to 90%.
For the compound `CCCCCCCCCCCCCCCC(=O)N[C@H](C(=O)N[C@H](C(=O)N[C@@H](CCCCN)C(=O)N[C@@H](CCCNC(=N)N)C(=O)N[C@@H](CO)C(=O)N[C@@H](CO)C(=O)N[C@@H](CCC(=O)O)C(=O)N[C@H](CCCCN)C(=O)N[C@@H](CCCNC(=N)N)C(=O)N[C@@H](CCCNC(=N)N)C(=O)N[C@@H](CO)C(=O)N[C@@H](C)C(=O)N[C@@H](CC(=O)O)C(=O)N[C@H](C(=O)N[C@@H](Cc1ccccc1)C(=O)N[C@H](C(N)=O)[C@@H](C)CC)[C@@H](C)CC)C(C)C)[C@@H](C)O` [Compound 21] (HELM PEPTIDE1{[CCCCCCCCCCCCCCCC(=O)[*:2]].T.V.K.R.S.S.E.[dK].R.R.S.A.D.I.F.I.[am]}$$$$V2.0), the Ranking entry is “**** (EC50≦25 nM (hAPJ), % IA≧80% and either % histamine>35% or formal (+) charge>1)”; the “inhibition of NKH477-stimulated increase in cAMP, dose dependent” value is “inhibited”. The same compound gave an EC50 under setting [1] of 9 nM. The same compound yielded a half-maximal effective concentration (EC50) under setting [2] not above 25 nM. Besides, under setting [3], the Emax is not below 80%. Moreover, the “% IA (cAMP inhibition, hAPJ HEK)” value (Table 6, hAPJ HEK cells) was found to be 85%.
